The values below come from patent US9018370B2, “Derivatives of uridine phosphate and their uses in protein binding assays” (King's College London of Strand, priority 2009, dated 2015).

Data set [1] addresses T1, B. taurus α-1,3-GalT (Bos taurus, UniProt P14769).
T1 construct: made in house
The data set is described as follows: Donor kinetics of UDP-Gal derivatives with GalT, HPLC. Particulars: MnCl2 20 mM, MOPS pH 7.2, 37° C. Format: biochemical. How it is done: J. Am. Chem. Soc. 122, 261-1269 (2000); Rich, J. R.; Szpacenko, A.; Palcic, M. M. & Bundle, D. R. Glycosyltransferase-Catalyzed Synthesis of Thiooligosaccharides. Angew. Chem. Int. Ed. […] ChemBioChem 9, 1632-1640 (2008). […] (total volume 100 μL, all concentrations are final concentrations). The reactions were stopped by cooling in dry ice. Samples were analysed immediately by HPLC on a PerkinElmer Series 200 machine equipped with a Supelcosil LC-18-T column (5 μm, 25 cm×4.6 mm), a column oven (set to 30° C.), and a diode array detector. Each sample (injection volume 40 μL) was eluted at 1.5 mL/min with a gradient of methanol (10-30%) against 0.5 M phosphate buffer (adjusted to pH 8 with triethylamine). […] Km and vmax values were determined by fitting data points to a Michaelis-Menten curve using GraFit 5.0.10.

Data set [2] can be described thus: Quantum yield determination of UDP-Gal derivatives 3a-d. Format: physicochemical.
Description: To determine quantum yields, for each absorbance and fluorescence spectrum the area under the curve (AUC) was calculated by numerical integration, applying the mid-point rule. For each compound, AUCabs and AUCfluo were then plotted over compound concentration according to AUCabs=A×[conc]+B (equation 1) and AUCfluo=A′×[conc]+B′ (equation 2). […] The quantum yields for reference compounds were used to calculate the general quantum yield φg for each compound 3a-d, according to φg=φref×(A′/A)/(A′/A)ref.
Data set [3] concerns the target T1, B. taurus α-1,3-GalT. The data set is described as follows: Microplate fluorescence titration / ligand-displacement assay with fluorophore 3d. In kind it is binding. How it is done: The fluorescence emission of a given fluorophore is influenced by its microenvironment, although different fluorophores vary their fluorescence emissions to different extents on changing microenvironment.
(§1) Fluorescence intensity measurements with 3d were carried out in black NUNC F96 MicroWell polystyrene plates on a BMG labtech PolarStar microplate reader equipped with a 350±5 nm excitation filter and a 430±5 nm emission filter. The number of flashes per wells was set to 50 (gain: 2240; position delay: 0.2 s). Prior to readings, plates were incubated, with shaking, for 10 min at 30° C. (double orbital, shaking width 4 mm, 10 seconds). Results were visualised with BMG labtech data analysis software Mars 1.10 and analysed with GraFit version 5.0.10.
(§2) Samples were pipetted into the requisite wells of a black NUNC 96-well plate as shown in tables E1-E3, at the end of the description. Key: B—Tris/HCl buffer (50 mM, pH 7; 40 μL); F—fluorophore 3d (200 nM in Tris/HCl buffer; 40 μL); M—MnCl2 (10 mM in Tris/HCl buffer; […]); E—galactosyltransferase (in Tris/HCl buffer; 40 μL); I—inhibitor (in Tris/HCl buffer; 40 μL). Total volume/well: 200 μL. All experiments were carried out in triplicate, unless indicated otherwise.

Data set [4] concerns AA(Gly)B GTB mutant (H. sapiens). The data set is described as follows: Titration of 3d with other GTs. In kind it is binding. How it is done: as §1, §2
(§3) To assess the generality of this new GT assay principle, we next repeated the above experiments with another four GalTs, including mammalian and bacterial enzymes with different acceptor specificities and reaction mechanisms. […] The experimental protocol was the same as in Example 2. The amino acid sequences for four GalTs used in the experiment, i.e. LgtC (N. meningitidis), Ggta1 (B. taurus), GTB (H. sapiens) and AA(Gly)B GTB mutant (H. sapiens) or references where the sequence listings can be found are given above. The amino acid sequence for β4GalT (H. pylori) can be found above and in the following reference: Endo, T., Koizumi, S., Tabata, K. & Ozaki, A. Glycobiology 10, 809-813 (2000).

The test system of a further data set is GTB (H. sapiens). Put plainly: Titration of 3d with other GTs. Format: binding. As for the experimental part:
as §1, §2, §3

The next data set has as its system LgtC (N. meningitidis). Put plainly: Titration of 3d with other GTs. Format: binding. As for the experimental part:
as §1, §2, §3

The test system of another data set is β4GalT (H. pylori). Put plainly: Titration of 3d with other GTs. In kind it is binding. How it is done: as §1, §2, §3
The target in a further data set is T2, Ggta1 (Bos taurus, UniProt P14769).
T2 construct: made in house
T2 sequence (P14769 whole entry): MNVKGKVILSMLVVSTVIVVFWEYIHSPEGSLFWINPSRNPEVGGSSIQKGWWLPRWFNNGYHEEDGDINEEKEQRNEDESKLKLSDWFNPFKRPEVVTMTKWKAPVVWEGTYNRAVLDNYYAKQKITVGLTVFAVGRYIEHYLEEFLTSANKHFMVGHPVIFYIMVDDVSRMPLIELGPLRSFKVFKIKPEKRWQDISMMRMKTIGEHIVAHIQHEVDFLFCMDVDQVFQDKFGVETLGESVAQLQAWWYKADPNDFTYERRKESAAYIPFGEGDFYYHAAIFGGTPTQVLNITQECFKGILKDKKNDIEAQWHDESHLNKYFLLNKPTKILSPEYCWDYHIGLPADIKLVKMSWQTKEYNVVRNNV
The data set is described as follows: Variation in fluorescence of 3d and analogues upon incubation with Ggta1. To be noted: various concentrations of Ggta1. In kind it is binding, B. taurus. How it is done:
as §1, §2
We also carried out an experiment on 3d (numbered 18e in FIG. 4) and different analogues of 3d, namely the nucleoside 5h, the nucleotide 6r and nucleoside diphosphate 22d, to show their variation in fluorescence on binding to Ggta1.
The synthesis of 5h, 6r and 22d are shown below. The protocol for the microplate/fluorescence experiments was the same as in Example 2.

Data set [5] can be described thus: Quantum yield determination of nucleotide derivatives. Format: physicochemical. To be noted: for Quantum yield of reference compounds determined with this protocol: in H2O; for Q.Y.: in water. How it is done:
Nucleotide derivatives were serially diluted in H2O (10, 20, 30, 40 and 50 μM for absorbance measurements, and 0.2, 0.4, 0.6, 0.8, 1 μM for fluorescence measurements), and UV absorbance and fluorescence emission (with λmax absorbance=λem fluorescence) were recorded for all samples. To determine quantum yields, for each absorbance and fluorescence spectrum the area under the curve (AUC) was calculated by numerical integration, applying the mid-point rule. For each compound, AUCabs and AUCem were then plotted over compound concentration according to AUCabs=A×[conc]+B and AUCem=A′×[conc]+B′. From these linear plots, the gradients A and A′ were extracted, and for each compound the specific quantum yield φs, under these experimental conditions, was calculated as the ratio A′/A. Quantum yields determined with this protocol for two reference compounds, 2-aminopyridine and L-tryptophan (2-aminopyridine: 0.60; L-tryptophan: 0.14) were in exact agreement with literature values. The quantum yields for reference compounds were used to calculate the general quantum yield φg for each nucleotide analogue, according to φg=φref×(A′/A)/(A′/A)ref.
Fluorescent uracil nucleosides and (sugar-)nucleotides can be obtained by connecting a known chromophore/fluorophore via an electronically nonconjugating linker to the natural uracil base (Sinkeldam et al. Chem. Rev. 2010, 110, 2579-2619). The photophysical features of the resulting nucleoside/(sugar-)nucleotide analogue are usually very similar to that of the parent fluorophore (Sinkeldam et al. Chem. Rev. 2010, 110, 2579-2619). In contrast, extending the uracil by electronically conjugating the base to additional aromatic moieties typically generates a new chromophore with unique, and somewhat unpredictable, photophysical characteristics (Sinkeldam et al. Chem. Rev. 2010, 110, 2579-2619). To precisely measure the intensity of the fluorescence emitted by the brightest fluorophores described above, we determined their quantum yield. These measurements were performed in water following the procedure reported by Nighswander-Remper and the results are shown in Table B below. Quantum yield determinations confirmed that 2p and 2q display the highest fluorescence and are 10-fold brighter than any other nucleotide analogues with a compact aryl- or heteroaryl substituent in position 5 that have been reported to date (Sinkeldam et al. Chem. Rev. 2010, 110, 2579-2619). That 2p and 2q absorb and fluoresce at long wavelength is an attractive feature, which makes these fluorophores suitable for analyses in biological environments. Additionally, we found the intensity of the fluorescence emission is conserved for UDP and UTP analogues, thereby providing attractive fluorescence probes candidates for fluorimetric assays.

For data set [6] the following is noted: Lakowicz, Principles of Fluorescence Spectroscopy; cited from earlier work.
Data set [7] is described as follows: Influence of microenvironment (solvent) on fluorescence of 2q′. In kind it is physicochemical. How it is done: Fluorescence intensity measurements were performed in NUNC F96 MicroWell polystyrene plates on a BMG labtech PolarStar plate reader equipped with a 350±5 nm absorbance filter and with a 430±5 nm emission filter. 10 μM solutions of 2q′ were prepared in HPLC grade water, acetonitrile and isopropanol. Sample assays with various solvent mixtures were incubated during 2 minutes at 30° C. prior to fluorescence measurement. Data were analysed with the help of GraFit version 5.0.10.
After identifying intense 5-arylated UMP fluorophores and understanding the origin of their fluorescence we investigated the influence of the microenvironment on the fluorescence signal. In order to generate a variety of microenvironments, we prepared 200 nM solutions of 5-(5-formyl-2-thiophene)-uridine 2q′ (the nucleoside analogue of 2q) in solvents varying in polarity index: (P): water (P=9), acetonitrile (MeCN, P=5.8) and isopropanol (IPA, P=3.9). We subsequently recorded absorbance and fluorescence signals for these three solutions (see FIG. 6).

Data set [8] in a line: Absorbance and fluorescence spectra of 5-R-UMP analogues. In kind it is physicochemical. To be noted: for λmax: absorbance. How it is done:
UV absorbance spectra were recorded on a PerkinElmer Lambda 25 UV-Vis spectrometer at ambient temperature in FarUV quartz cells (path length 1.0 cm). Fluorescence spectra were recorded on a PerkinElmer LS-45 spectrometer at ambient temperature in a quartz micro fluorescence cell (path length 1.0 cm).

Another data set has as its system a-1.4-GalT. The data set is described as follows: Titration of C-glycosidic fluorophore 2 with GalT and competition with ligands. In kind it is binding.
In data set [9] the target is T3, Streptococcus thermophilus UDP-Gal 4′-epimerase (GalE) (Streptococcus thermophilus, UniProt P21977).
T3 construct: purchased Calbiochem
T3 sequence (P21977 whole entry): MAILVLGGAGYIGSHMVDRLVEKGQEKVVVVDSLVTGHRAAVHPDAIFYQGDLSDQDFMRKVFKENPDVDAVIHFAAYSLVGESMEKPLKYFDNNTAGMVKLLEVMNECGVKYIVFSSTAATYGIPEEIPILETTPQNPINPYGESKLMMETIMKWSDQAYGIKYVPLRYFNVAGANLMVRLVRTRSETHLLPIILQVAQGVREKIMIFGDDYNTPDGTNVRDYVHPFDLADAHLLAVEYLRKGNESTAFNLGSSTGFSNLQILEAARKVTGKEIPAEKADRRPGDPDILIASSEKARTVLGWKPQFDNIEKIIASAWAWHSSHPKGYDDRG
Put plainly: GalE-catalysed conversion of UDP-Gal into UDP-Glc, HPLC assay. In kind it is biochemical. How it is done: The reactions were stopped by cooling in dry ice. […] Km and vmax values were determined by fitting data points to a Michaelis-Menten curve using GraFit 5.0.10. […] All experiments were carried out in triplicate.

T1 sequence (P14769 whole entry): as the sequence (P14769 whole entry) above

On to `O=Cc1ccc(-c2cn([C@@H]3O[C@H](COP(=O)(O)OP(=O)(O)O[C@H]4O[C@H](CO)[C@H](O)[C@H](O)[C@H]4O)[C@@H](O)[C@H]3O)c(=O)[nH]c2=O)s1` [3d, 5-(5-Formylthien-2-yl)-UDP-α-D-galactose], for which, at B. taurus α-1,3-GalT [1], the Km came to 13 ± 1 µM. Besides, the kcat on B. taurus α-1,3-GalT [1] amounted to 0.0019 s⁻¹. Also, the “Fluorescence (in words)” value in data set [2] is listed as “much more strongly fluorescent”. The “Quantum yield relative to that of 3a” value in data set [2] is given as 25 fold. The “Quantum yield relative to that of the parent UDP-Gal” value in data set [2] is given as ~6000 fold. The Quantum yield in data set [2] (in H2O) came to 0.26. In addition, the “Fluorescence of 3d upon titration with enzyme” value was “little or no fluorescence quenching” at B. taurus α-1,3-GalT [3] (in the absence of Mn^2+) and “quenched in the presence of enzyme in a concentration-dependent manner” at B. taurus α-1,3-GalT [3] (in the presence of MnCl2, 200 nM ligand, Tris pH 7). The “Fluorescence of 3d with enzyme” value (in data set [4]; in the data set on GTB (H. sapiens); with LgtC (N. meningitidis); with β4GalT (H. pylori)) was “strong fluorescence quenching effect” each time. Besides, the “Variation in fluorescence on binding to Ggta1” value (from here on “Variation in fluorescence”) on Ggta1 is “varied their intensity of luminescence with Ggta1”.
With `N[C@@H](Cc1c[nH]c2ccccc12)C(=O)O` [L-tryptophan, reference compound], the “Quantum yield of reference compounds determined with this protocol” value in data set [5] is recorded as 0.14. Also, the “Quantum yield, literature values of reference compounds” value in [6] was 0.14.
With `O=Cc1ccc(-c2cn([C@@H]3O[C@H](CO)[C@@H](O)[C@H]3O)c(=O)[nH]c2=O)s1` [2q′, 5-(5-Formylthien-2-yl)-uridine], in [7] (200 nM solutions), the “Fluorescence in water relative to MeCN” value was 20 fold. In data set [7] (water, MeCN, IPA), the “Absorbance on change of solvent” value is listed as “unaffected by a change in microenvironment”.
On to `O=Cc1ccc(-c2cn([C@@H]3O[C@H](COP(=O)(O)O)[C@@H](O)[C@H]3O)c(=O)[nH]c2=O)s1` [2q, 5-(5-Formylthien-2-yl)-uridine-5′-monophosphate], for which the “Variation in fluorescence” value on Ggta1 was “varied their intensity of luminescence with Ggta1”. For the same compound, in data set [8] (100 μM), the “Fluo Intensity at 100 μM” value is >650 a.u. In data set [8], this compound registered a λmax of 351 nm. The Emmax in [8] (fluorescence emission) is 434 nm. In [5], the “Brightness relative to any other reported 5-aryl/heteroaryl nucleotide analogues” value is recorded as 10 fold and the Q.Y. was determined as 0.26.
Turning to `Nc1ccccn1` [2-aminopyridine, reference compound], the “Quantum yield of reference compounds determined with this protocol” value in [5] came to 0.60. In addition, in data set [6], the “Quantum yield, literature values of reference compounds” value was 0.60.
In the case of `O=c1ccn([C@@H]2O[C@H](COP(=O)(O)OP(=O)(O)O)[C@@H](O)[C@H]2O)c(=O)[nH]1` [UDP, reference compound], at B. taurus α-1,3-GalT [3] (3d and α-1.3-GalT present), the “Fluorescence of 3d upon titration with competitive ligand” value is “restored”. Further, the “Reversal of fluorescence quenching of 2 by titration with ligand” value in the data set with a-1.4-GalT is recorded as “reversed”.
As to `O=Cc1ccc(-c2cn([C@@H]3O[C@H](COP(=O)(O)OP(=O)(O)CC[C@H]4O[C@H](CO)[C@H](O)[C@H](O)[C@H]4O)[C@@H](O)[C@H]3O)c(=O)[nH]c2=O)s1` [compound 2, Bis(sodium) [2-(α-D-galactopyranosyl)-ethylphosphono]-5-(5-formylthien-2-yl)uridin-5′-yl phosphate], affinity in data set [9] (Dixon plot, 232 μM UDP-Gal) was put at a Ki of 426 µM. Also, the “Use as substrate by GalE” value in [9] (co-incubation, HPLC) is on record as “does not use 2 as a substrate”. Further, the “Fluorescence of 2 upon titration with GalT” value in the data set with a-1.4-GalT was “quenched upon titration with a bacterial GalT”.
As to `O=Cc1ccc(-c2cn([C@@H]3O[C@H](COP(=O)(O)OP(=O)(O)O)[C@@H](O)[C@H]3O)c(=O)[nH]c2=O)s1` [22d, 5-(5-Formylthien-2-yl)-UDP], at Ggta1, the “Variation in fluorescence” value is “varied their intensity of luminescence with Ggta1”.
`O=c1ccn([C@@H]2O[C@H](COP(=O)(O)O)[C@@H](O)[C@H]2O)c(=O)[nH]1` [UMP, reference compound]: in data set [8], the λmax amounted to 262 nm. The compound further returned a Q.Y. in data set [5] of 5e-05. The “Reversal of fluorescence quenching of 2 by titration with ligand” value in the data set with a-1.4-GalT was “to a lesser extent”.

As a reminder, the Km is the concentration of substrate that gives half-maximal velocity. Usually kcat stands for the number of substrate molecules converted per active site and unit of time at saturation. A word on the Ki: it is the dissociation constant of the complex between target and ligand, obtained from inhibition or displacement. A lower Ki goes with tighter binding.
